These results are taken from patent publication US9562082B2, “Production of glycoproteins with low N-glycolylneuraminic acid (Neu5Gc) content” (LEK Pharmaceuticals D.D., priority 2009, dated 2017).

SMILES strings stand for the structures.

What all share (assay type): cell-based, Chinese hamster
In experiment [1] the test system is Recombinant CHO cells. As to the kind of experiment: Titre of secreted glycoprotein by ELISA. Here is the method: Cell viability was determined by the trypan blue exclusion method. The cell concentration was determined using a Vi-CELL™ Series Cell Viability Analyzer (Beckman Coulter, Fullerton, Calif., USA). Glucose, lactate, glutamine, and ammonia (NH4^+) concentrations were measured during the growth phase using a BioProfile Analyzer for mammalian cell culture (BioProfile 100 plus, Nova Biomedical, Waltham, USA). Additionally, oxygen and […] concentrations were monitored daily using pHOx (Stat Prophile pHOx Basic, Nova Biomedical, Waltham, USA). Secreted glycoprotein concentrations were quantified by enzyme linked immunosorbent assay (ELISA), and the titres were expressed in μg/ml.
The concentration of the secreted glycoproteins was quantified using an enzyme linked immunosorbent assay kit from R&D Systems (R&D Systems, Inc., Minneapolis, Minn., USA) according to the manufacturer's instructions. Microplate wells, pre-coated with monoclonal (mouse) antibodies specific for the respective glycoproteins expressed were first incubated with standard blank samples and specimens. […] The absorbance of the coloured solution was measured photometrically at 450 nm (Micro plate reader, Tecan, Columbus, USA) and was proportional to the concentration of the glycoprotein in the sample.
Background: In an ELISA, binding on a coated surface is turned into a signal by an enzyme label.

In experiment [2] the test system is Recombinant CHO cells. As to the kind of experiment: Neu5Gc content of glycoprotein secreted by CHO cells cultivated with medium additives (RP-HPLC of DMB-labelled sialic acids). An excerpt: Recombinant CHO cells expressing high titres of the glycosylated human glycoproteins were cultivated in suspension culture using rich in-house standard medium without additives according to the invention. After 2 weeks of passages, the cells were first harvested and subsequently inoculated into the same medium, however, supplemented with a range of DMSO concentrations from 0.25% to 1.50% (w/v). The effect of DMSO on growth, productivity, degree of sialylation, and Neu5Gc content was studied.
“One factor at the time”-experiments with different DMSO concentrations at 37° C. and 33° C., respectively, were performed at first in an attempt to determine the DMSO concentration and temperature which are best to minimise the Neu5Gc content on the glycoproteins secreted. To study the interaction between the parameters (i) DMSO concentration, (ii) time of DMSO addition, and (iii) time of the temperature shift (from 37° C. to 33° C.), further experiments were performed with the Design-Expert/Design-Ease programme (Stat-Ease, Inc., Minneapolis, Minn., USA) using the response surface method. Parameters (i), (ii), and (iii) were chosen as numeric factors and the axial points were set slightly out of already known ranges in order to cover a wide design space. One replicate on axial points, one replicate on factorial points and 4 centre points were performed. The results were analysed using the Design of Expert (DOE) software (Design-Expert, Version 7.1). The results of the shake flask experiments were confirmed in the Biostat®B bioreactor (Sartorius, B. Braun Biotech International, Germany). Exponentially growing cells were taken from cell culture flasks having a surface area of 225 cm^2 (Corning®Costar®). A Biostat®B bioreactor with a working volume of 5 litres was inoculated with 2×10^5 cells/ml. Cells were cultivated in a batch mode under standard conditions (37° C., pH 7.0, dissolved oxygen concentration (DOT) 50%) in the rich in-house standard medium supplemented with 0.75% (w/v) DMSO.
In order to study the effect of key intermediates of the metabolic pathway leading to the sialylation of the glycoproteins and consequently to the conversion of Neu5Ac to Neu5Gc, a two factorial minimal resolution IV design, which allows for the estimation of the main effects, was established. Said design allowed the determination which of the components NAcMan, NAcGlc, Man, Fru, and Gal has/have an impact on the degree of sialylation and conversion of Neu5Ac to Neu5Gc. To confirm the results from the DOE findings, the production medium was enriched with 8.75 mM NAcMan and 8.75 mM NAcGlc in combination with manganese (Mn^2+) salts in different concentrations, e.g., in the concentrations mentioned earlier in this application.
At the end of the batch culture the cells were removed. The glycoproteins were purified from the remaining harvests by means of immuno-affinity chromatography. Briefly, up to 2 mg of each of the glycoproteins per ml of the chromatographic resin (20-500 ml of the harvest) were loaded onto the column. Elution of the glycoproteins was performed with 0.1 M Na-phosphate buffer, pH 2.5. By adding 1 M Na-phosphate buffer, pH 7.5 (made up by a combination of Na2H-phosphate and NaH2-phosphate), the pH of the eluate was immediately adjusted to 7 and then stored for further analysis at below −60° C.
Sialic acids (Neu5Gc, Neu5Ac, Neu-5,7Ac2, Neu5Gc9Ac, Neu-5,9Ac2, Neu-5,8,9Ac3) were differentiated using highly sensitive RP-HPLC. Enzymatic desialylation with neuraminidase (a2-3,6,8,9-neuraminidase (Sialidase) from Arthrobacter ureafaciens, Roche, USA) released sialic acids. The released sialic acids were labelled with the fluorescent dye 1,2-diamino-4,5-methylenedioxybenzene (DMB). DMB-labelling is non-selective and therefore provides a pool of labelled sialic acid derivates in stoichiometric amounts. Derivates of the DMB-labelled sialic acids were separated on an RP-HPLC column using isocratic elution. […]

Experiment [3] deals with Recombinant CHO cells. In words: Specific productivity (Qp). The settings on record: DMSO 0.75, temperature 37. Here is the method:
According to the optimal range of the DMSO concentration, a numerical and graphical optimisation was performed using DOE software (FIG. 3). A minimal content of Neu5Gc and a maximal content of the most acidic isoforms were chosen as very important parameters, while increased titres and growth rates were weighted as medium important parameters. The ramps were extended a little over the limits. […] The specific productivity (Qp) was calculated following Equation 1 and expressed as pg of glycoprotein/[…]=(P2-P1)/((X2+X1)*(t2-t1)/2) Equation 1 (P2 and P1 are concentrations of secreted glycoprotein at the end and at the beginning of the repeated batches, respectively; X1 and X2 are cell concentrations at the corresponding time points t1 and t2).

Consider `C[S+](C)[O-]` [DMSO, dimethyl sulfoxide], for which the “Titre, DOE point prediction” value in the experiment with Recombinant CHO cells [1] (DMSO 0.75, temperature 37) was 65.56 µg/mL. The titre in the experiment with Recombinant CHO cells [1] (darbepoetin alfa, with DMSO) was roughly 57 µg/mL. Further, the “average Neu5Gc content for all glycoproteins tested” value in the experiment with Recombinant CHO cells [2] (0.25% DMSO) was 1.46%; in the experiment on Recombinant CHO cells [2] (0.5% DMSO), 1.17%; in the experiment with Recombinant CHO cells [2] (0.75% DMSO), 0.93%; with Recombinant CHO cells [2] (1% DMSO), 0.88%; with Recombinant CHO cells [2] (1.25% DMSO) it was 0.79%. The “content of Neu5Gc lowered by” value in the experiment on Recombinant CHO cells [2] (0.75% (w/v) DMSO, 5 litre bioreactor batch, vs batch without DMSO) is 50-60%. Also, in the experiment on Recombinant CHO cells [2] (darbepoetin alfa, 0.75% (w/v) DMSO, FIG. 1b), the Neu5Gc content entry is “about 0.9%”. The “content of Neu5Gc” value was “about 1%” in the experiment with Recombinant CHO cells [2] (darbepoetin alfa, bioreactor batch process, 0.75% (w/v) DMSO) and “about 0.8%” in the experiment on Recombinant CHO cells [2] (darbepoetin alfa, shake flask batch process, 0.75% (w/v) DMSO). Also, in the experiment with Recombinant CHO cells [3], the “Specific productivity, DOE point prediction” value is on record as 2.43 pcd.
